Experimental data as given in US5753675A, “Quinoline analogs of mevalonolactone and derivatives thereof” (Novartis Pharmaceuticals Corporation, priority 1990, dated 1998).
Like-named read-outs stand apart in the source and are kept apart here.

Legend:
HMG-CoA reductase = target: T1, HMG-CoA reductase (Rattus norvegicus, UniProt P51639); experiment: Test A. In Vitro Microsomal Assay of HMG-CoA Reductase Inhibition; assay type: biochemical; settings: rat liver microsomal suspensions, [14C]HMG-CoA substrate; test concentrations 0.05-1000 μmolar; read-out: IC50 (concentration calculated to produce a 50% inhibition of HMG-CoA reductase activity)
T1 construct: rat liver microsomal suspensions, freshly prepared from male Sprague-Dawley rats; from tissue; host or cells: rat liver microsomes (male Sprague-Dawley, 150-225 g)
T1 sequence (P51639 1-887): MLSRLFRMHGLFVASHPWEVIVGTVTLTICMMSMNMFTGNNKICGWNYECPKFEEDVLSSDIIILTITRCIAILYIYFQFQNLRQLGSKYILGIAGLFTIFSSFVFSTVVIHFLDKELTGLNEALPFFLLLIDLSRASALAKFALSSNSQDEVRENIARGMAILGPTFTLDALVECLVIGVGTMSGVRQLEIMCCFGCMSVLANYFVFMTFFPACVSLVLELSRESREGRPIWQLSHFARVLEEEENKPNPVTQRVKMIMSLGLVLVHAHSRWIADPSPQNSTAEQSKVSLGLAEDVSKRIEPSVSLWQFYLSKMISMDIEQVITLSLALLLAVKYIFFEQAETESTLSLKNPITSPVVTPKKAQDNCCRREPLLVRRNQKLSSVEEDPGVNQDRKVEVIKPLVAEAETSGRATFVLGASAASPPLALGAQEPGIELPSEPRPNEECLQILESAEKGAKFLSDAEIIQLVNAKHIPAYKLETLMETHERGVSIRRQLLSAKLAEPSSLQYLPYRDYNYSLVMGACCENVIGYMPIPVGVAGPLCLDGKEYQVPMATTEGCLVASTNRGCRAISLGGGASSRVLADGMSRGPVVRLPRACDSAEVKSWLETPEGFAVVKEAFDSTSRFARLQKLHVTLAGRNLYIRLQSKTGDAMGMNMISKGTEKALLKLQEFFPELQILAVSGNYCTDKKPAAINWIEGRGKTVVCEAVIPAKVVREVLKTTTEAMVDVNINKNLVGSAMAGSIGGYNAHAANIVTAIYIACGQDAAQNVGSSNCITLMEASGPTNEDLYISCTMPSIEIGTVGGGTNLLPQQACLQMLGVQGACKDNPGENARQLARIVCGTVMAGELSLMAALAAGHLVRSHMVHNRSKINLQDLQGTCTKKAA
Protocol: Test A. In Vitro Microsomal Assay of HMG-CoA Reductase Inhibition:
200 μl. aliquots (1.08-1.50 mg./ml.) of rat liver microsomal suspensions, freshly prepared from male Sprague-Dawley rats (150-225 g. body weight), in Buffer A with 10 mmol. dithiothreitol are incubated with 10 μl. of a solution of the test substance in dimethylacetamide and assayed for HMG-CoA reductase activity as described in Ackerman et al., J. Lipid Res. 18, 408-413 (1977). In the assay the microsomes are the source of the HMG-CoA reductase enzyme which catalyzes the reduction of HMG-CoA to mevalonate. The assay employs a chloroform extraction or a Dowex® 1X8 (200-400 mesh, formate form) ion exchange column to separate the product, [^14 C]mevalonolactone, formed by the HMG-CoA reductase reduction of the substrate, [^14 C]HMG-CoA. [^3 H]mevalonolactone is added as an internal reference. Inhibition of HMG-CoA reductase is calculated from the decrease in specific activity ([^14 C/^3 H]mevalonate) of test groups compared to controls.
IC50 is the concentration of the test substance in the assay system calculated to produce a 50% inhibition of HMG-CoA reductase activity. The tests are run at concentrations of test substance between 0.05 and 1000 μmolar.

[1] = tested on: 3β-hydroxysterol synthesis (cholesterol biosynthesis); experiment: Test B. In Vivo Cholesterol Biosynthesis Inhibition Test; settings: Rattus norvegicus, ip, 1 h, read-out: ED50 (inhibition of 3β-hydroxysterol synthesis)
Protocol: Test B. In Vivo Cholesterol Biosynthesis Inhibition Test: In vivo studies utilize male Wistar Royal Hart rats weighing 150±20 g. which have been kept for 7-10 days on an altered light cycle (6:30 A.M.-6:30 P.M. dark) housed two per cage and fed powdered Purina Rat Chow and water ad libitum. Three hours before the diurnal maximum of cholesterol synthesis at mid-dark, the rats are administered the test substance (e.g., 0.01-20 mg./kg. body weight) dissolved or as a suspension in 0.5% carboxymethyl-cellulose in a volume of 1 ml./100 g. body weight. Controls receive vehicle alone. One hour after receiving the test substance, the rats are injected intraperitoneally with about 25 μCi/100 g. body weight of sodium [1-^14 C]acetate 1-3 mCi/mmol. Two hours after mid-dark, blood samples are obtained under sodium hexobarbital anesthesia, and the serum is separated by centrifugation. […] The [^14 C]digitonides are then counted by liquid scintillation spectrometry. […] Inhibition of 3β-hydroxysterol synthesis is calculated from the reduction in the nCi of 3β-hydroxysterols formed from test groups compared to controls.

[2] = male Wistar Royal Hart rats, in 0.5% carboxymethyl-cellulose, sodium [1-14C]acetate i.p. one hour after test substance, serum

| SMILES | IC50 (HMG-CoA reductase) | ED50 [1, 2] | ED50 [1] |
| --- | --- | --- | --- |
| CCOC(=O)C[C@H](O)C[C@H](O)/C=C/c1c(C(C)C)nc2ccccc2c1-c1ccc(F)cc1 (relative stereo) [Example 3C] | 0.41 µM | 0.49 mg/kg |  |
| CC[C@H](C)C(=O)O[C@H]1CCC=C2C=C[C@H](C)[C@H](CC[C@@H]3C[C@@H](O)CC(=O)O3)[C@H]21 [Compactin, reference compound] |  | 3.5 mg/kg |  |
| CC(C)c1nc2ccccc2c(-c2ccc(F)cc2)c1/C=C/C(O)CC(O)CC(=O)O (stereo not drawn) [Example 4] | 0.53 µM | > 1 mg/kg |  |
| CC[C@H](C)C(=O)O[C@H]1C[C@@H](C)C=C2C=C[C@H](C)[C@H](CC[C@@H]3C[C@@H](O)CC(=O)O3)[C@H]21 [Mevinolin, reference compound] |  |  | 0.41 mg/kg |
